What was measured:
[1] = The drug is tested on Bacteroides sp. WH2 strain: WH2 for biotransformation. The drug concentrations were measured before and after a 12-h incubation by liquid-chromatography-coupled mass spectrometry (LC–MS); details: bacteroides sp. wh2, 12 h, 2 µM
[2] = The drug is tested on Ruminococcus lactaris strain: ATCC29176 for biotransformation. The drug concentrations were measured before and after a 12-h incubation by liquid-chromatography-coupled mass spectrometry (LC–MS); details: 2 µM
[3] = The drug is tested on Bacteroides caccae strain: ATCC43185 for biotransformation. The drug concentrations were measured before and after a 12-h incubation by liquid-chromatography-coupled mass spectrometry (LC–MS); details: 2 µM
[4] = The drug is tested on Odoribacter splanchnicus strain: fecal isolate for biotransformation. The drug concentrations were measured before and after a 12-h incubation by liquid-chromatography-coupled mass spectrometry (LC–MS); details: 2 µM
[5] = The drug is tested on Bacteroides finegoldii strain: DSM17565 for biotransformation. The drug concentrations were measured before and after a 12-h incubation by liquid-chromatography-coupled mass spectrometry (LC–MS); details: 2 µM
[6] = parabacteroides distasonis, 12 h, 2 µM
Description: The drug is tested on Parabacteroides distasonis strain: ATCC8503 for biotransformation. The drug concentrations were measured before and after a 12-h incubation by liquid-chromatography-coupled mass spectrometry (LC–MS)

[7] = limosilactobacillus reuteri cf48-3a, 12 h, 2 µM
Description: The drug is tested on Lactobacillus reuteri CF48-3A strain: BEI HM-102 for biotransformation. The drug concentrations were measured before and after a 12-h incubation by liquid-chromatography-coupled mass spectrometry (LC–MS)

[8] = bacteroides intestinalis, 12 h, 2 µM
Description: The drug is tested on Bacteroides intestinalis strain: DSM17393 for biotransformation. The drug concentrations were measured before and after a 12-h incubation by liquid-chromatography-coupled mass spectrometry (LC–MS)

[9] = The drug is tested on Providencia stuartii strain: ATCC25827 for biotransformation. The drug concentrations were measured before and after a 12-h incubation by liquid-chromatography-coupled mass spectrometry (LC–MS); details: 2 µM
[10] = bacteroides thetaiotaomicron, 12 h, 2 µM
Description: The drug is tested on Bacteroides thetaiotaomicron strain: 3731 for biotransformation. The drug concentrations were measured before and after a 12-h incubation by liquid-chromatography-coupled mass spectrometry (LC–MS)

[11] = The drug is tested on Blautia luti strain: DSM14534 for biotransformation. The drug concentrations were measured before and after a 12-h incubation by liquid-chromatography-coupled mass spectrometry (LC–MS); type: ADME; parameters: dose 2 uM, timepoint 0 vs 12 hours; details: 2 µM
[12] = The drug is tested on Bacteroides fragilis strain: HMW615 for biotransformation. The drug concentrations were measured before and after a 12-h incubation by liquid-chromatography-coupled mass spectrometry (LC–MS); details: 2 µM
[13] = segatella copri, 12 h, 2 µM
Description: The drug is tested on Prevotella copri strain: DSM18205 for biotransformation. The drug concentrations were measured before and after a 12-h incubation by liquid-chromatography-coupled mass spectrometry (LC–MS)

[14] = The drug is tested on Eubacterium ventriosum strain: ATCC27560 for biotransformation. The drug concentrations were measured before and after a 12-h incubation by liquid-chromatography-coupled mass spectrometry (LC–MS); type: ADME; parameters: dose 2 uM, timepoint 0 vs 12 hours; details: 2 µM
[15] = parabacteroides johnsonii, 12 h, 2 µM
Description: The drug is tested on Parabacteroides johnsonii strain: DSM18315 for biotransformation. The drug concentrations were measured before and after a 12-h incubation by liquid-chromatography-coupled mass spectrometry (LC–MS)

[16] = The drug is tested on Bifidobacterium longum subsp. Infantis strain: CCUG52486 for biotransformation. The drug concentrations were measured before and after a 12-h incubation by liquid-chromatography-coupled mass spectrometry (LC–MS); details: 2 µM
[17] = The drug is tested on Parabacteroides merdae strain: ATCC43184 for biotransformation. The drug concentrations were measured before and after a 12-h incubation by liquid-chromatography-coupled mass spectrometry (LC–MS); details: 2 µM
[18] = akkermansia muciniphila, 12 h, 2 µM
Description: The drug is tested on Akkermansia muciniphila strain: ATCC BAA-835 for biotransformation. The drug concentrations were measured before and after a 12-h incubation by liquid-chromatography-coupled mass spectrometry (LC–MS)

[19] = anaerostipes sp., 12 h, 2 µM
Description: The drug is tested on Anaerostipes sp. strain: fecal isolate for biotransformation. The drug concentrations were measured before and after a 12-h incubation by liquid-chromatography-coupled mass spectrometry (LC–MS)

[20] = The drug is tested on Anaerococcus hydrogenalis strain: DSM7454 for biotransformation. The drug concentrations were measured before and after a 12-h incubation by liquid-chromatography-coupled mass spectrometry (LC–MS); details: 2 µM

SMILES: CN1CCc2cccc3c2[C@H]1Cc1ccc(O)c(O)c1-3 [APOMORPHINE]
- Bacterial Biotransformation [1]: Compound NOT metabolized
- Bacterial Biotransformation [2]: Compound NOT metabolized
- Bacterial Biotransformation [3]: Compound NOT metabolized
- Bacterial Biotransformation [4]: Compound NOT metabolized
- Bacterial Biotransformation [5]: Compound NOT metabolized
- Bacterial Biotransformation [6]: Compound NOT metabolized
- Bacterial Biotransformation [7]: Compound NOT metabolized
- Bacterial Biotransformation [8]: Compound NOT metabolized
- Bacterial Biotransformation [9]: Compound NOT metabolized
- Bacterial Biotransformation [10]: Compound NOT metabolized
- Bacterial Biotransformation [11]: Compound NOT metabolized
- Bacterial Biotransformation [12]: Compound NOT metabolized
- Bacterial Biotransformation [13]: Compound NOT metabolized
- Bacterial Biotransformation [14]: Compound NOT metabolized
- Bacterial Biotransformation [15]: Compound NOT metabolized
- Bacterial Biotransformation [16]: Compound NOT metabolized
- Bacterial Biotransformation [17]: Compound NOT metabolized
- Bacterial Biotransformation [18]: Compound NOT metabolized
- Bacterial Biotransformation [19]: Compound NOT metabolized
- Bacterial Biotransformation [20]: Compound NOT metabolized

SMILES: Clc1cccc(Cl)c1N=C1NCCN1 [CLONIDINE]
- Bacterial Biotransformation [1]: Compound NOT metabolized
- Bacterial Biotransformation [2]: Compound NOT metabolized
- Bacterial Biotransformation [3]: Compound NOT metabolized
- Bacterial Biotransformation [4]: Compound metabolized
- Bacterial Biotransformation [5]: Compound NOT metabolized
- Bacterial Biotransformation [6]: Compound NOT metabolized
- Bacterial Biotransformation [7]: Compound NOT metabolized
- Bacterial Biotransformation [8]: Compound NOT metabolized
- Bacterial Biotransformation [9]: Compound NOT metabolized
- Bacterial Biotransformation [10]: Compound metabolized
- Bacterial Biotransformation [11]: Compound NOT metabolized
- Bacterial Biotransformation [12]: Compound metabolized
- Bacterial Biotransformation [13]: Compound NOT metabolized
- Bacterial Biotransformation [14]: Compound NOT metabolized
- Bacterial Biotransformation [15]: Compound NOT metabolized
- Bacterial Biotransformation [16]: Compound NOT metabolized
- Bacterial Biotransformation [17]: Compound NOT metabolized
- Bacterial Biotransformation [18]: Compound NOT metabolized
- Bacterial Biotransformation [19]: Compound NOT metabolized
- Bacterial Biotransformation [20]: Compound NOT metabolized

SMILES: CC#C[C@]1(O)CC[C@H]2[C@@H]3CCC4=CC(=O)CCC4=C3[C@@H](c3ccc(N(C)C)cc3)C[C@@]21C [MIFEPRISTONE]
- Bacterial Biotransformation [1]: Compound NOT metabolized
- Bacterial Biotransformation [2]: Compound NOT metabolized
- Bacterial Biotransformation [3]: Compound NOT metabolized
- Bacterial Biotransformation [4]: Compound NOT metabolized
- Bacterial Biotransformation [5]: Compound NOT metabolized
- Bacterial Biotransformation [6]: Compound NOT metabolized
- Bacterial Biotransformation [7]: Compound NOT metabolized
- Bacterial Biotransformation [8]: Compound NOT metabolized
- Bacterial Biotransformation [9]: Compound NOT metabolized
- Bacterial Biotransformation [10]: Compound NOT metabolized
- Bacterial Biotransformation [11]: Compound NOT metabolized
- Bacterial Biotransformation [12]: Compound NOT metabolized
- Bacterial Biotransformation [13]: Compound NOT metabolized
- Bacterial Biotransformation [14]: Compound NOT metabolized
- Bacterial Biotransformation [15]: Compound NOT metabolized
- Bacterial Biotransformation [16]: Compound NOT metabolized
- Bacterial Biotransformation [17]: Compound NOT metabolized
- Bacterial Biotransformation [18]: Compound NOT metabolized
- Bacterial Biotransformation [19]: Compound NOT metabolized
- Bacterial Biotransformation [20]: Compound NOT metabolized

SMILES: CCN(CC)C(=O)/C(C#N)=C/c1cc(O)c(O)c([N+](=O)[O-])c1 [ENTACAPONE]
- Bacterial Biotransformation [1]: Compound metabolized
- Bacterial Biotransformation [2]: Compound metabolized
- Bacterial Biotransformation [3]: Compound metabolized
- Bacterial Biotransformation [4]: Compound metabolized
- Bacterial Biotransformation [5]: Compound metabolized
- Bacterial Biotransformation [6]: Compound metabolized
- Bacterial Biotransformation [7]: Compound metabolized
- Bacterial Biotransformation [8]: Compound metabolized
- Bacterial Biotransformation [9]: Compound metabolized
- Bacterial Biotransformation [10]: Compound metabolized
- Bacterial Biotransformation [11]: Compound metabolized
- Bacterial Biotransformation [12]: Compound metabolized
- Bacterial Biotransformation [13]: Compound metabolized
- Bacterial Biotransformation [14]: Compound metabolized
- Bacterial Biotransformation [15]: Compound metabolized
- Bacterial Biotransformation [16]: Compound metabolized
- Bacterial Biotransformation [17]: Compound metabolized
- Bacterial Biotransformation [18]: Compound metabolized
- Bacterial Biotransformation [19]: Compound metabolized
- Bacterial Biotransformation [20]: Compound metabolized

SMILES: CCOc1ccc2nc(S(N)(=O)=O)sc2c1 [ETHOXZOLAMIDE]
- Bacterial Biotransformation [1]: Compound metabolized
- Bacterial Biotransformation [2]: Compound metabolized
- Bacterial Biotransformation [3]: Compound metabolized
- Bacterial Biotransformation [4]: Compound metabolized
- Bacterial Biotransformation [5]: Compound metabolized
- Bacterial Biotransformation [6]: Compound metabolized
- Bacterial Biotransformation [7]: Compound metabolized
- Bacterial Biotransformation [8]: Compound metabolized
- Bacterial Biotransformation [9]: Compound metabolized
- Bacterial Biotransformation [10]: Compound metabolized
- Bacterial Biotransformation [11]: Compound metabolized
- Bacterial Biotransformation [12]: Compound NOT metabolized
- Bacterial Biotransformation [13]: Compound metabolized
- Bacterial Biotransformation [14]: Compound metabolized
- Bacterial Biotransformation [15]: Compound metabolized
- Bacterial Biotransformation [16]: Compound metabolized
- Bacterial Biotransformation [17]: Compound metabolized
- Bacterial Biotransformation [18]: Compound metabolized
- Bacterial Biotransformation [19]: Compound metabolized
- Bacterial Biotransformation [20]: Compound metabolized

SMILES: CCOC(=O)C1=C(C)NC(C)=C(C(=O)OC)C1c1cccc([N+](=O)[O-])c1 (stereo not given) [NITRENDIPINE]
- Bacterial Biotransformation [1]: Compound metabolized
- Bacterial Biotransformation [2]: Compound metabolized
- Bacterial Biotransformation [3]: Compound metabolized
- Bacterial Biotransformation [4]: Compound metabolized
- Bacterial Biotransformation [5]: Compound metabolized
- Bacterial Biotransformation [6]: Compound metabolized
- Bacterial Biotransformation [7]: Compound metabolized
- Bacterial Biotransformation [8]: Compound metabolized
- Bacterial Biotransformation [9]: Compound NOT metabolized
- Bacterial Biotransformation [10]: Compound metabolized
- Bacterial Biotransformation [11]: Compound metabolized
- Bacterial Biotransformation [12]: Compound metabolized
- Bacterial Biotransformation [13]: Compound metabolized
- Bacterial Biotransformation [14]: Compound metabolized
- Bacterial Biotransformation [15]: Compound metabolized
- Bacterial Biotransformation [16]: Compound metabolized
- Bacterial Biotransformation [17]: Compound metabolized
- Bacterial Biotransformation [18]: Compound metabolized
- Bacterial Biotransformation [19]: Compound metabolized
- Bacterial Biotransformation [20]: Compound metabolized
